Data: patent US20160102365A1, “ASSAYS, METHODS AND KITS FOR ANALYZING SENSITIVITY AND RESISTANCE TO ANTI-CANCER DRUGS, PREDICTING A CANCER PATIENT'S PROGNOSIS, AND PERSONALIZED TREATMENT STRATEGIES” (UNIVERSITY OF MIAMI, priority 2013, published 2016)

Experiments:
Type in all cases: cell-based, human
OCI ovarian tumor lines = assay: Panel of oncology drugs: viable cells by Alamar Blue, OCI versus ATCC ovarian tumor lines; details: 5000 cells/well, WIT-OC medium, serial dilutions, 72-144 hrs incubation
Method: In these experiments, ATCC ovarian tumor lines (SKOV3, OV90, TOV-1120 and A2780) and OCI ovarian tumor lines (FCI-P2p, OCI-P5x, OCI-P2a, OCI-C4p, OCI-P7a, OCI-05x, OCI-CSp, FCI-P1p, OCI-P9a1, OCI-P8p, OCI-P3a, OCI-P1a) were plated in WIT-OC medium (5000 cells/well) in 96 well plates. The next day serial dilutions of Taxol, Vincristine, U0126, PJ34, Adriamycin, AS703026, 5-fluorouracil, Cisplatin, PLX4720 and PJ34 were added. The number of viable cells was measured as 590/530 florescence via Alamar Blue after 72-144 hrs incubation, depending on drug. […] Thus, the methods described herein of analyzing sensitivity of a subject's cancerous tumor to an oncology drug and developing a personalized therapy for the subject can be used for any drug.

OCI and SOC cell lines = assay: Drug sensitivity experiments, response compared between OCI and SOC lines in WIT-OC medium
Method: (§1) Drug sensitivity experiments: The relative sensitivities of OCI and SOC cell lines to chemotherapy drugs was measured by seeding an equal number of cells in six replicates in 96-well black-walled clear bottom Corning plates at 3000 cells/well, and allowing attachment in WIT-OC for 12 h. Both OCI and SOC cell lines were exposed to drugs in WIT-OC medium. The cell lines were cultured in the presence of drug or vehicle control for 96 h. The fraction of metabolically active cells after drug treatment was measured by incubation with 2:10 (v/v) CellTiter-Blue reagent (Promega Cat#G8081) in media for 2 h, and the reaction was stopped by addition of 3% SDS. Fluorescence was measured in a SpectraMax M5 plate reader (Molecular Devices, CA) using SoftMax software (555EX/585EM).

[1] = test system: OCI lines in mRNA/RPPA Cluster 1; assay: Taxol drug sensitivity (metabolic activity / viability) of OCI lines in mRNA/RPPA Cluster 1 compared to SOC lines
Method: FIG. 2: Gene expression profiling and Taxol Response of ovarian cancer cell lines identifies two major classes. A) Taxol response of OCI and SOC cell lines in mRNA/RPPA (Reverse Phase Protein Analysis) Cluster 1 vs. Cluster 2. The OCI and SOC lines were plated in triplicates in WIT-OC medium (5000 cells/well) in 96 well plates. The next day 20 nM Taxol was added and metabolic activity was measured as 590/530 fluorescence via Alamar Blue after 5 days. OCI cell lines in mRNA/RPPA Cluster 1 (blue bars), SOC cell lines in Cluster 2 (red bars), OCI lines in Cluster 2 (white bars). The results are representative of more than three four different experiments. B) Proteins that are over-expressed in OCI mRNA/RPPA Cluster 1. […] The data are presented in matrix format in which rows represent cell lines and columns represent antibody probes for each protein. The red and green colors reflect relative high and low expression levels respectively. C) Hierarchical clustering of mRNA data from OCI and SOC lines. […]
as §1, with “Both OCI and SOC cell lines were exposed to drugs in WIT-OC medium. The cell lines were cultured in the presence of drug or vehicle control for 96 h.” left out
Drug sensitivity experiments: The relative sensitivities of OCI and SOC cell lines to Taxol was measured by seeding 3000 cells/well in six replicates in 96-well black-walled clear bottom Corning plates and allowing attachment in WIT-OC for 12 h. […] The fraction of metabolically active cells after drug treatment was measured by incubation with 2:10 (v/v) CellTiter-Blue reagent (Promega Cat#G8081) in media for 2 h, and the reaction was stopped by addition of 3% SDS. […]

OCI lines in Cluster 2 = assay: Taxol drug sensitivity of the subset of OCI lines in Cluster 2; details: WIT-OC medium; similar to SOC lines
Method: FIG. 2: Gene expression profiling and Taxol Response of ovarian cancer cell lines identifies two major classes. A) Taxol response of OCI and SOC cell lines in mRNA/RPPA (Reverse Phase Protein Analysis) Cluster 1 vs. Cluster 2. The OCI and SOC lines were plated in triplicates in WIT-OC medium (5000 cells/well) in 96 well plates. The next day 20 nM Taxol was added and metabolic activity was measured as 590/530 fluorescence via Alamar Blue after 5 days. OCI cell lines in mRNA/RPPA Cluster 1 (blue bars), SOC cell lines in Cluster 2 (red bars), OCI lines in Cluster 2 (white bars). The results are representative of more than three four different experiments. B) Proteins that are over-expressed in OCI mRNA/RPPA Cluster 1. […]
as §1, with “Both OCI and SOC cell lines were exposed to drugs in WIT-OC medium. The cell lines were cultured in the presence of drug or vehicle control for 96 h.” left out, “(555EX/585EM). […]” for “(555EX/585EM).”

O=c1[nH]cc(F)c(=O)[nH]1 [5-fluorouracil]
Resistance of OCI lines to inhibition of cell proliferation compared to standard (ATCC) cell lines (OCI ovarian tumor lines): more resistant

COc1cccc2c1C(=O)c1c(O)c3c(c(O)c1C2=O)C[C@@](O)(C(=O)CO)C[C@@H]3O[C@H]1C[C@H](N)[C@H](O)[C@H](C)O1 [Adriamycin]
Resistance of OCI lines to inhibition of cell proliferation compared to standard (ATCC) cell lines (OCI ovarian tumor lines): more resistant

N.N.[Cl][Pt][Cl] [Cisplatin]
Difference in drug response between OCI and SOC lines (OCI and SOC cell lines): did not find a significant difference

CN(C)CC(=O)Nc1ccc2[nH]c(=O)c3ccccc3c2c1 [PJ34]
Resistance of OCI lines to inhibition of cell proliferation compared to standard (ATCC) cell lines (OCI ovarian tumor lines): more resistant

CC(=O)O[C@H]1C(=O)[C@@]2(C)[C@H]([C@H](OC(=O)c3ccccc3)[C@]3(O)C[C@H](OC(=O)[C@H](O)[C@@H](NC(=O)c4ccccc4)c4ccccc4)C(C)=C1C3(C)C)[C@]1(OC(C)=O)CO[C@@H]1C[C@@H]2O [Taxol]
IC50 ([1]; Homo sapiens, OCI lines plated in WIT-OC medium): 10 to 100 nM
IC50 fold higher than the IC50 values in SOC lines in mRNA/RPPA Cluster 2 ([1]; OCI Cluster 1 vs SOC Cluster 2, WIT-OC medium): 5-10 fold
Sensitivity to Taxol of OCI lines in Cluster 1 relative to SOC lines in Cluster 2 ([1]; WIT-OC medium, confirmed with a full dose-response curve): less sensitive
Sensitivity to Taxol of OCI lines in Cluster 2 compared to OCI lines in Cluster 1 (OCI lines in Cluster 2): more sensitive

N#CC(=C(/N)Sc1ccccc1N)/C(C#N)=C(\N)Sc1ccccc1N [U0126]
Resistance of OCI lines to inhibition of cell proliferation compared to standard (ATCC) cell lines (OCI ovarian tumor lines): more resistant

CC[C@]1(O)C[C@H]2CN(CCc3c([nH]c4ccccc34)[C@@](C(=O)OC)(c3cc4c(cc3OC)N(C=O)[C@H]3[C@@](O)(C(=O)OC)[C@H](OC(C)=O)[C@]5(CC)C=CCN6CC[C@]43[C@@H]65)C2)C1 [Vincristine]
Difference in drug response between OCI and SOC lines (OCI and SOC cell lines): similarly different
